From patent US5721229A, “Soluble forms of cephalosporins and treatment of animals” (Veterinary Pharmacy Corporation, priority 1995, dated 1998)
Like-named read-outs stand apart in the source and are kept apart here.

Experiments:
[1] = test system: Pasturella multocida
Description: (§1) The mixture and solution of the invention was tested in 100 to 200 pound pigs. […] A 30 pig pen was used as a non-treated control group to measure the efficacy of the treatment.

[2] = test system: Streptococcus suis Sp.
Description: as §1

[3] = test system: all bacteria; assay: Sensitivity results by the University Diagnostic Laboratory, all bacteria (Example 6 table)
Description: as §1

[4] = test system: Actinobacillis pleuropneumonia Type 7
Description: as §1

[5] = test system: Step suis type 2
Excerpt: A farm was selected which was known to have problems with Step suis type 2 in its nursery pigs. The experiment involved two groups of 30 pigs, each group was in the same room, but in separate pens. Each pig was individually tagged and a tonsilar swab was done on day one and day seven. Cultures were run on all the swabs.

[6] = cited from earlier work
[7] = pH 4.5; cited from earlier work

## CC1=C(C(=O)O)N2C(=O)[C@@H](NC(=O)[C@H](N)c3ccccc3)[C@H]2SC1 [cephalexin, α-aminobenzyl-3-desacetoxycephalosporin]
[1]
  Sensitivity to cephalexin: showed sensitivity
[2]
  Sensitivity to cephalexin: showed sensitivity
[3]; control group of 30 pigs
  Sensitivity results by the University Diagnostic Laboratory: sensitive to cephalexin
[3]; treated group of 970 pigs
  Sensitivity results by the University Diagnostic Laboratory: sensitive to cephalexin
[4]
  Sensitivity to cephalexin: showed sensitivity
[5]; isolates from treated group
  Sensitivity of the organism: sensitive
[5]; isolates from untreated control group
  Sensitivity of the organism: sensitive

## CC1(C)S[C@@H]2[C@H](NC(=O)[C@H](N)c3ccccc3)C(=O)N2[C@H]1C(=O)O [sodium ampicillin]
[6]; aqueous solution
  pH of aqueous solution: ~9.5

## CC1(C)S[C@@H]2[C@H](NC(=O)[C@H](N)c3ccccc3)C(=O)N2[C@H]1C(=O)O [ampicillin]
[6]; 95 mole-% of sodium carbonate
  pH on dissolution with sodium carbonate: 8.3
[6]; pH 8.3
  Mole-% of sodium carbonate sufficient to dissolve: 95 mole-%

## CC1=C(C(=O)O)N2C(=O)[C@@H](NC(=O)[C@H](N)c3ccccc3)[C@H]2SC1 [cephalexin monohydrate]
[7]
  Neutrally charged fraction: 100%
